Assay results as given in the supplement of paper PMC9938120.

Legend:
Experiment in all cases: drug sensitivity score (DSS3, normalised partial AUC of % inhibition dose-response) (DSS (score)); higher = more sensitive (stronger inhibition of viability); extreme values may be limits of the assay
Conditions in all cases: 72 h; library: FO5A; assay format: 2D, 384-well, CellTiter-Glo
FMOC02_1 = test system: FMOC02_1 (patient-derived low-grade serous ovarian cancer cells)
Outline: (§1)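 On 384-well flat clear-bottom plates carrying compounds at five concentrations across a 10,000-fold range, patient-derived ovarian cancer cells below passage 10 were incubated for 72 h at 37 °C with 5% CO2. CellTiter-Glo readout of viability was processed in Breeze. A higher drug sensitivity score, defined as the partial area under the percent-inhibition dose-response curve divided by the log of the upper asymptote, means greater sensitivity.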

FMOC04 = test system: FMOC04 (patient-derived high-grade serous ovarian cancer cells)
Outline: as §1

FMOC22 = test system: FMOC22 (patient-derived mucinous ovarian cancer cells)
Outline: as §1

FMOC11 = test system: FMOC11 (patient-derived high-grade serous ovarian cancer cells)
Outline: as §1

FMOC02_2 = test system: FMOC02_2 (patient-derived low-grade serous ovarian cancer cells)
Outline: as §1

FMOC06 = test system: FMOC06 (patient-derived mucinous ovarian cancer cells)
Outline: as §1

FMOC17 = test system: FMOC17 (patient-derived low-grade serous ovarian cancer cells)
Outline: as §1

FMOC27 = test system: FMOC27 (patient-derived low-grade serous ovarian cancer cells)
Outline: as §1

FMOC25_2 = test system: FMOC25_2 (patient-derived low-grade serous ovarian cancer cells)
Outline: as §1

FMOC14 = test system: FMOC14 (patient-derived high-grade serous ovarian cancer cells)
Outline: as §1

FMOC02_3 = test system: FMOC02_3 (patient-derived low-grade serous ovarian cancer cells)
Outline: as §1

FMOC24 = test system: FMOC24 (patient-derived high-grade serous ovarian cancer cells)
Outline: as §1

FMOC09 = test system: FMOC09 (patient-derived high-grade serous ovarian cancer cells)
Outline: as §1

FMOC03 = test system: FMOC03 (patient-derived mucinous ovarian cancer cells)
Outline: as §1

FMOC28 = test system: FMOC28 (patient-derived low-grade serous ovarian cancer cells)
Outline: as §1

SMILES | drug sensitivity score (FMOC02_1) | drug sensitivity score (FMOC04) | drug sensitivity score (FMOC22) | drug sensitivity score (FMOC11) | drug sensitivity score (FMOC02_2) | drug sensitivity score (FMOC06) | drug sensitivity score (FMOC17) | drug sensitivity score (FMOC27) | drug sensitivity score (FMOC25_2) | drug sensitivity score (FMOC14) | drug sensitivity score (FMOC02_3) | drug sensitivity score (FMOC24) | drug sensitivity score (FMOC09) | drug sensitivity score (FMOC03) | drug sensitivity score (FMOC28)
C[C@@H]1CN(C(=O)c2ccc(NC(=O)c3cc(O[C@H](C)c4c(Cl)ccc(F)c4Cl)c(N)nn3)cc2)C[C@H](C)N1 [Ensartinib] | 4.3 | 0.05 | 0.1 | 0.2 | 0.4 | 3 | 1.5 | 0 | 0.8 | 0 | 1.6 | 0.7 | 1.1 | 0 | 2.2
COc1cccc(-c2ccc(NC(=O)C3=C(C(=O)O)CCC3)c(F)c2)c1 [Vidofludimus] | 0 | 0.05 | 0 | 0.6 | 0 | 0 | 0 | 0 | 2.5 | 0 | 0 | 0 | 0 | 0.4 | 0
CCN1CCN(c2ccc(Nc3cc(N(C)C(=O)Nc4c(Cl)c(OC)cc(OC)c4Cl)ncn3)cc2)CC1 [Infigratinib] | 0 | 0 | 0 | 0 | 0 | 0 | 0 | 0 | 0 | 0 | 0 | 0.05 | 0 | 0 | 0.5
O=c1ncn2nc(Sc3ccc(F)cc3F)ccc2c1-c1c(Cl)cccc1Cl [Neflamapimod] | 0 | 0 | 0 | 1 | 0 | 0.3 | 0 | 0.1 | 0 | 0 | 0 | 0.05 | 1.1 | 0 | 1.1
CC1=C2C[C@H]3[C@@H](CC[C@@H]4C[C@H](NS(C)(=O)=O)CC[C@@]43C)[C@@H]2CC[C@@]2(C1)O[C@@H]1C[C@H](C)CN[C@H]1[C@H]2C [Saridegib] | 0 | 0 | 0 | 0 | 2.2 | 0 | 4.1 | 0 | 0 | 0 | 0 | 0.3 | 0 | 0 | 2.2
COc1cc2c(cc1OCCCN1CCCC1)N=C(N)C21CCC1 [A-366] | 3.9 | 3.9 | 0 | 1.1 | 0.2 | 0 | 2.3 | 0 | 4.9 | 0.5 | 0 | 7.2 | 2.3 | 0.7 | 0.1
CN1CCN(c2ccc(C(=O)Nc3n[nH]c4ccc(Cc5cc(F)cc(F)c5)cc34)c(NC3CCOCC3)c2)CC1 [Entrectinib] | 0.3 | 0.1 | 0 | 1.1 | 1.5 | 1.4 | 1.9 | 0 | 2.7 | 0 | 2.7 | 0 | 0.3 | 0 | 2.2
COCC[n+]1c2c(n(Cc3cnccn3)c1C)C(=O)c1ccccc1C2=O [Sepantronium bromide] | 38.4 | 38.1 | 33.2 | 37.8 | 30.6 | 32.9 | 36.9 | 30.9 | 41.4 | 42.6 | 36.1 | 33.5 | 43.7 | 39 | 43
Cc1cc(Nc2ncnc3ccc(NC4=NC(C)(C)CO4)cc23)ccc1Oc1ccn2ncnc2c1 [Tucatinib] | 0 | 0 | 0 | 0 | 0.1 | 0 | 0 | 0 | 0.5 | 0 | 0 | 0 | 0 | 0 | 1
CN(C)CCCOc1ccc(-c2ccc3ncc4c(c3c2)n(C2CCOCC2)c(=O)n4C)cn1 [AZD0156] | 5.3 | 0.8 | 0.9 | 0 | 3.4 | 0.1 | 2.2 | 0 | 2.5 | 0 | 3.1 | 0 | 0.1 | 0.5 | 4.6
CNS(=O)(=O)Nc1nccc(Cc2c(C)c3ccc(Oc4ncccn4)cc3oc2=O)c1F | 0 | 0 | 0.7 | 0 | 0.8 | 0.4 | 0 | 0 | 5.2 | 0 | 3.7 | 0 | 0.7 | 0.4 | 4.5
CCCN(CCC)C(=O)C1=Cc2ccc(-c3ccc(C(=O)N4CCCC4)cc3)cc2N=C(N)C1 [Motolimod] | 0 | 0 | 0 | 0 | 0 | 0.3 | 0 | 0.4 | 0.1 | 0 | 1.6 | 0 | 0 | 0 | 2.5
N#Cc1ccnc(N2C(=O)CC[C@H]2C(=O)N(c2cncc(F)c2)[C@H](C(=O)NC2CC(F)(F)C2)c2ccccc2Cl)c1 [Ivosidenib] | 0.2 | 0 | 0 | 0 | 0 | 0 | 0.3 | 0 | 0 | 0 | 0 | 0.2 | 0 | 0 | 2.6
